What was measured:
[1] = system: OX2 receptor; settings: cited from earlier work
[2] = target: T1, human OX2 receptors (Homo sapiens, UniProt O43614); test: Calcium mobilization Ke; format: cell-based
T1 sequence (O43614 1-444): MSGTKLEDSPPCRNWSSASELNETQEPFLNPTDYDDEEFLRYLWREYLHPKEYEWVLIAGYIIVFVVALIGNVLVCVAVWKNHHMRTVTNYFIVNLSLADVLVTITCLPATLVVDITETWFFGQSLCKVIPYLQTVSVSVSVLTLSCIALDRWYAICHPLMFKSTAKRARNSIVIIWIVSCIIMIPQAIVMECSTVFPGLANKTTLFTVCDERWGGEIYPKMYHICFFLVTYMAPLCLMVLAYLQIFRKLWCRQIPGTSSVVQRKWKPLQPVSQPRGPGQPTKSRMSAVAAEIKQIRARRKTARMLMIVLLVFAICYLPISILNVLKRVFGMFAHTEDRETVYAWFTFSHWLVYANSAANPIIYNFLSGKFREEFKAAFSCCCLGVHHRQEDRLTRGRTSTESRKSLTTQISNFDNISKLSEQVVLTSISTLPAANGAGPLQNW

[3] = target: T2, human OX1 receptors (Homo sapiens, UniProt O43613); test: Calcium mobilization Ke; format: cell-based; settings: for OX1 potency (in words): qualitative statement
T2 sequence (O43613 1-425): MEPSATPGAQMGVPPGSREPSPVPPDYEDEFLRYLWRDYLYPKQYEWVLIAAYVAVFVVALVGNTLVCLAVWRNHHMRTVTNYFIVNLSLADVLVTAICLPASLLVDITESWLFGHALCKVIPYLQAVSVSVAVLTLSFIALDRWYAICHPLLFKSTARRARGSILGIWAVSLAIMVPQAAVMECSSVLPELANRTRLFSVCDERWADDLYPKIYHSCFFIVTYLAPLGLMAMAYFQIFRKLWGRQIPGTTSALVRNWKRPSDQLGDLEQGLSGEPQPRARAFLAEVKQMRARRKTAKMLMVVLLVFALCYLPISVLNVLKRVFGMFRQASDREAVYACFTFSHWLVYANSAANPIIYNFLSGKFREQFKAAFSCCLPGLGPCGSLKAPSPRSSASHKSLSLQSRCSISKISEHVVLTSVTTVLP

[4] = cited from earlier work
[5] = system: OX1; settings: cited from earlier work
[6] = pre-incubation increased to 45 min and 60 min
[7] = simultaneous addition of antagonist and Orexin A

| SMILES | Kb [2] | Kb [3] | also measured |
| --- | --- | --- | --- |
| CNC(=O)[C@@H](c1ccccc1)N1CCc2cc(OC)c(OC)cc2[C@@H]1CCc1ccc(C(F)(F)F)cc1 [Almorexant, almorexant] | – | – | mode of antagonism at the OX2 receptor [1]: insurmountable antagonist |
| CCC(=O)Oc1ccc2c(c1)CCN(CC(=O)NCc1ccccc1)C2Cc1ccc(OC)c(OC)c1 (stereo not drawn) [compound 19, 2-[(Benzylcarbamoyl)methyl]-1-[(3,4-dimethoxyphenyl)methyl]-1,2,3,4-tetrahydroisoquinolin-6-yl propanoate] | 1.29 ± 0.13 µM | > 10 µM | – |
| CCCOc1ccc2c(c1)C(Cc1ccc(OC)c(OC)c1)N(CC(=O)NCc1ccccc1)CC2 (stereo not drawn) [10c, N-Benzyl-2-{1-[(3,4-dimethoxyphenyl)methyl]-7-propoxy-1,2,3,4-tetrahydroisoquinolin-2-yl}acetamide] | 2.55 ± 0.26 µM | 0.0237 ± 0.0079 µM | mode of antagonism at OX1 ([3]; 15 minute pre-incubation): competitive antagonism; selectivity for OX1 over OX2 ([3]; OX2 versus OX1 Ke): > 100 fold |
| CCCCCC(=O)Nc1ccc2c(c1)CCN(CC(=O)NCc1ccccc1)C2Cc1ccc(OC)c(OC)c1 (stereo not drawn) [28b, N-{2-[(Benzylcarbamoyl)methyl]-1-[(3,4-dimethoxyphenyl)methyl]-1,2,3,4-tetrahydroisoquinolin-6-yl}hexanamide] | > 10 µM | > 10 µM | – |
| COc1ccc2c(c1)C(Cc1ccc(OC)c(OC)c1)N(CC(=O)NCc1ccccc1)CC2 (stereo not drawn) [10a, N-Benzyl-2-{1-[(3,4-dimethoxyphenyl)methyl]-7-methoxy-1,2,3,4-tetrahydroisoquinolin-2-yl}acetamide] | 1.68 ± 0.33 µM | 0.512 ± 0.036 µM | – |
| COC(=O)Nc1ccc2c(c1)CCN(CC(=O)NCc1ccccc1)C2Cc1ccc(OC)c(OC)c1 (stereo not drawn) [23a, Methyl N-{2-[(benzylcarbamoyl)methyl]-1-[(3,4-dimethoxyphenyl)methyl]-1,2,3,4-tetrahydroisoquinolin-6-yl}carbamate] | > 10 µM | 2.4 ± 0.32 µM | OX1 potency (in words) [3]: slight potency |
| CCCCCNc1ccc2c(c1)CCN(CC(=O)NCc1ccccc1)C2Cc1ccc(OC)c(OC)c1 (stereo not drawn) [25r, N-Benzyl-2-{1-[(3,4-dimethoxyphenyl)methyl]-6-(pentylamino)-1,2,3,4-tetrahydroisoquinolin-2-yl}acetamide] | – | > 10 µM | – |
| COc1ccc(CCNc2ccc3c(c2)CCN(CC(=O)NCc2ccccc2)C3Cc2ccc(OC)c(OC)c2)cc1OC (stereo not drawn) [25j, N-Benzyl-2-(6-{[2-(3,4-dimethoxyphenyl)ethyl]amino}-1-[(3,4-dimethoxyphenyl)methyl]-1,2,3,4-tetrahydroisoquinolin-2-yl)acetamide] | – | 2.18 ± 0.36 µM | mode of antagonism at OX1 ([3]; 15 minute pre-incubation): insurmountable antagonism; mode of antagonism at OX1 [3, 6]: competitive antagonists; mode of antagonism at OX1 [3, 7]: competitive antagonists |
| COc1cc2c(cc1OC)CN(C(=O)[C@@H](NCc1ccncc1)C(C)(C)C)CC2 [TCS-OX2-29] | – | – | effect on cocaine self-administration [4]: no effect; effect on cue-induced reinstatement ([4]; cocaine): no effect |
| COc1ccc(CC2c3ccc(OC(C)C)cc3CCN2CC(=O)NCc2ccccc2)cc1OC (stereo not drawn) [17c, N-Benzyl-2-{1-[(3,4-dimethoxyphenyl)methyl]-6-(propan-2-yloxy)-1,2,3,4-tetrahydroisoquinolin-2-yl}acetamide] | – | > 10 µM | – |
| COc1ccc(CC2c3ccc(OCC(F)(F)F)cc3CCN2CC(=O)NCc2ccccc2)cc1OC (stereo not drawn) [17b, N-Benzyl-2-{1-[(3,4-dimethoxyphenyl)methyl]-6-(2,2,2-trifluoroethoxy)-1,2,3,4-tetrahydroisoquinolin-2-yl}acetamide] | – | > 10 µM | – |
| Cc1nc2ccc(NC(=O)Nc3ccnc4cccnc34)cc2o1 [SB-334867] | – | – | selectivity for OX1 over OX2 [5]: ~ 50 fold |
| CCOC(=O)Nc1ccc2c(c1)CCN(CC(=O)NCc1ccccc1)C2Cc1ccc(OC)c(OC)c1 (stereo not drawn) [23b, Ethyl N-{2-[(benzylcarbamoyl)methyl]-1-[(3,4-dimethoxyphenyl)methyl]-1,2,3,4-tetrahydroisoquinolin-6-yl}carbamate] | > 10 µM | > 10 µM | OX1 potency (in words) [3]: not active |
| COc1ccc(CC2c3ccc(NC(=O)c4ccccc4)cc3CCN2CC(=O)NCc2ccccc2)cc1OC (stereo not drawn) [28c, N-{2-[(Benzylcarbamoyl)methyl]-1-[(3,4-dimethoxyphenyl)methyl]-1,2,3,4-tetrahydroisoquinolin-6-yl}benzamide] | – | > 10 µM | – |
| COc1ccc(CC2c3ccc(N(C)Cc4ccccc4)cc3CCN2CC(=O)NCc2ccccc2)cc1OC (stereo not drawn) [25i, N-Benzyl-2-{6-[benzyl(methyl)amino]-1-[(3,4-dimethoxyphenyl)methyl]-1,2,3,4-tetrahydroisoquinolin-2-yl}acetamide] | – | > 10 µM | – |
| CCOC(=O)CCCOc1ccc2c(c1)CCN(CC(=O)NCc1ccccc1)C2Cc1ccc(OC)c(OC)c1 (stereo not drawn) [17e, Ethyl 4-({2-[(benzylcarbamoyl)methyl]-1-[(3,4-dimethoxyphenyl)methyl]-1,2,3,4-tetrahydroisoquinolin-6-yl}oxy)butanoate] | – | 1 ± 0.19 µM | mode of antagonism at OX1 ([3]; 15 minute pre-incubation): insurmountable antagonism; mode of antagonism at OX1 [3, 6]: competitive antagonists; mode of antagonism at OX1 [3, 7]: competitive antagonists |
| CCCCCCN(C)c1ccc2c(c1)CCN(CC(=O)NCc1ccccc1)C2Cc1ccc(OC)c(OC)c1 (stereo not drawn) [25u, N-Benzyl-2-{1-[(3,4-dimethoxyphenyl)methyl]-6-[hexyl(methyl)amino]-1,2,3,4-tetrahydroisoquinolin-2-yl}acetamide] | – | > 10 µM | – |
| COc1ccc(CC2c3ccc(NCc4ccccc4)cc3CCN2CC(=O)NCc2ccccc2)cc1OC (stereo not drawn) [25h, N-Benzyl-2-[6-(benzylamino)-1-[(3,4-dimethoxyphenyl)methyl]-1,2,3,4-tetrahydroisoquinolin-2-yl]acetamide] | – | 1.1 ± 0.29 µM | – |
| COc1ccc(CC2c3ccc(NS(C)(=O)=O)cc3CCN2CC(=O)NCc2ccccc2)cc1OC (stereo not drawn) [compound 27, N-Benzyl-2-{1-[(3,4-dimethoxyphenyl)methyl]-6-methanesulfonamido-1,2,3,4-tetrahydroisoquinolin-2-yl}acetamide] | – | > 10 µM | OX1 potency (in words) [3]: no significant potency |
| CCCNc1ccc2c(c1)CCN(CC(=O)NCc1ccccc1)C2Cc1ccc(OC)c(OC)c1 (stereo not drawn) [25b, N-Benzyl-2-{1-[(3,4-dimethoxyphenyl)methyl]-6-(propylamino)-1,2,3,4-tetrahydroisoquinolin-2-yl}acetamide] | – | > 10 µM | – |
| COc1ccc(CC2c3ccc(OS(C)(=O)=O)cc3CCN2CC(=O)NCc2ccccc2)cc1OC (stereo not drawn) [18a, 2-[(Benzylcarbamoyl)methyl]-1-[(3,4-dimethoxyphenyl)methyl]-1,2,3,4-tetrahydroisoquinolin-6-yl methanesulfonate] | 1.33 ± 0.26 µM | > 10 µM | – |
| CCOC(=O)CCNc1ccc2c(c1)CCN(CC(=O)NCc1ccccc1)C2Cc1ccc(OC)c(OC)c1 (stereo not drawn) [26c, Ethyl 3-({2-[(benzylcarbamoyl)methyl]-1-[(3,4-dimethoxyphenyl)methyl]-1,2,3,4-tetrahydroisoquinolin-6-yl}amino)propanoate] | – | 0.809 ± 0.2 µM | OX1 potency (in words) [3]: some activity |
| CCOC(=O)CCCNc1ccc2c(c1)CCN(CC(=O)NCc1ccccc1)C2Cc1ccc(OC)c(OC)c1 (stereo not drawn) [26d, Ethyl 4-({2-[(benzylcarbamoyl)methyl]-1-[(3,4-dimethoxyphenyl)methyl]-1,2,3,4-tetrahydroisoquinolin-6-yl}amino)butanoate] | > 10 µM | 0.591 ± 0.067 µM | OX1 potency (in words) [3]: some activity |
